Data reported in PubChem BioAssay AID330 (DTP/NCI, 2004).
“And” between values parts separate entries of the source, which are not always exact repeats. Equal entries are not always repeated. Toxic doses and inconclusive results are not listed.

System: P388 leukemia ip, CD2F1 mice, survival T/C
Test: NCI In Vivo Anticancer Drug Screen. Data for tumor model P388 Leukemia (intraperitoneal) in CD2F1 (CDF1) mice
Details: endpoint: median survival time, higher = longer survival
Method in brief: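 Mice carrying the transplanted tumor received test compound or vehicle. Survival was recorded in each group, and the value is the treated-group measurement divided by that of the vehicle-treated control group.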

[1] = dose: 25.0 mg/kg/injection, schedule: Q01DX009 (ip), vehicle: saline with Tween-80
[2] = dose: 25.0 mg/kg/injection, schedule: Q01DX009 (ip), vehicle: saline
[3] = dose: 50.0 mg/kg/injection, schedule: Q01DX009 (ip), vehicle: saline with Tween-80
[4] = dose: 50.0 mg/kg/injection, schedule: Q01DX009 (ip), vehicle: saline
[5] = dose: 100.0 mg/kg/injection, schedule: Q01DX009 (ip), vehicle: saline with Tween-80
[6] = dose: 100.0 mg/kg/injection, schedule: Q01DX009 (ip), vehicle: saline
[7] = dose: 200.0 mg/kg/injection, schedule: Q01DX009 (ip), vehicle: saline with Tween-80
[8] = dose: 400.0 mg/kg/injection, schedule: Q01DX009 (ip), vehicle: saline with Tween-80
[9] = dose: 60.0 mg/kg/injection, schedule: Q01DX005 (ip), vehicle: saline with Tween-80
[10] = dose: 120.0 mg/kg/injection, schedule: Q01DX005 (ip), vehicle: saline with Tween-80
[11] = dose: 240.0 mg/kg/injection, schedule: Q01DX005 (ip), vehicle: saline with Tween-80
[12] = dose: 12.5 mg/kg/injection, schedule: Q01DX009 (ip), vehicle: water
[13] = dose: 25.0 mg/kg/injection, schedule: Q01DX009 (ip), vehicle: water
[14] = dose: 50.0 mg/kg/injection, schedule: Q01DX009 (ip), vehicle: water
[15] = dose: 50.0 mg/kg/injection, schedule: Q01DX005 (ip), vehicle: saline with Tween-80
[16] = dose: 100.0 mg/kg/injection, schedule: Q01DX005 (ip), vehicle: saline with Tween-80
[17] = dose: 3.13 mg/kg/injection, schedule: Q01DX009 (ip), vehicle: saline with Tween-80
[18] = dose: 6.25 mg/kg/injection, schedule: Q01DX009 (ip), vehicle: saline with Tween-80
[19] = dose: 12.5 mg/kg/injection, schedule: Q01DX009 (ip), vehicle: saline with Tween-80
[20] = dose: 60.0 mg/kg/injection, schedule: Q01DX005 (ip), vehicle: Klucel (hydroxypropylcellulose) (HPC)
[21] = dose: 120.0 mg/kg/injection, schedule: Q01DX005 (ip), vehicle: Klucel (hydroxypropylcellulose) (HPC)
[22] = dose: 240.0 mg/kg/injection, schedule: Q01DX005 (ip), vehicle: Klucel (hydroxypropylcellulose) (HPC)

## CCC(=O)Oc1ccc[nH]c1=O
[1]
  T/C: 101 % of control
[2]
  T/C: 105 % of control and 92 % of control
[3]
  T/C: 100 % of control
[4]
  T/C: 100 % of control and 110 % of control
[5]
  T/C: 100 % of control
[6]
  T/C: 103 % of control and 94 % of control
[7]
  T/C: 112 % of control and 121 % of control
dose: 300.0 mg/kg/injection, schedule: Q01DX009 (ip), vehicle: saline
  T/C: 115 % of control and 116 % of control
dose: 400.0 mg/kg/injection, schedule: Q01DX009 (ip), vehicle: Klucel (hydroxypropylcellulose) (HPC)
  T/C: 123 % of control
[8]
  T/C: 122 % of control
dose: 500.0 mg/kg/injection, schedule: Q01DX009 (ip), vehicle: Klucel (hydroxypropylcellulose) (HPC)
  T/C: 154 % of control
dose: 600.0 mg/kg/injection, schedule: Q01DX009 (ip), vehicle: saline with Tween-80
  T/C: 122 % of control
dose: 600.0 mg/kg/injection, schedule: Q01DX009 (ip), vehicle: saline
  T/C: 124 % of control

## CC[Si](/C=C(/C)C(C)(C)C)(CC)CC
[3]
  T/C: 94 % of control
[5]
  T/C: 96 % of control
[7]
  T/C: 113 % of control

## Cc1cc([N+](=O)[O-])ccc1NC(=O)OC(C)C
[9]
  T/C: 99 % of control
[10]
  T/C: 111 % of control
[11]
  T/C: 99 % of control

## O=S(=O)(OI(O)c1ccccc1)c1ccccc1
[12]
  T/C: 98 % of control
[13]
  T/C: 116 % of control
[14]
  T/C: 105 % of control and 113 % of control

## COc1cc2c(cc1OC)C1Cc3cc(OC)c(OC)cc3[N+]1(C)CC2 (stereo not drawn)
[15]
  T/C: 103 % of control
[16]
  T/C: 103 % of control

## C/C=C1/CN2C3CC45c6ccccc6N(C)C4C2CC1C3C5O (stereo not drawn)
[15]
  T/C: 98 % of control
[16]
  T/C: 97 % of control

## CNc1c(NC)n(C)c(=O)n(C)c1=O
[3]
  T/C: 90 % of control
[4]
  T/C: 109 % of control
[5]
  T/C: 105 % of control and 97 % of control
[6]
  T/C: 109 % of control
[7]
  T/C: 121 % of control and 97 % of control
dose: 200.0 mg/kg/injection, schedule: Q01DX009 (ip), vehicle: saline
  T/C: 106 % of control
[8]
  T/C: 100 % of control and 112 % of control

## O=C(Nc1ccc(Cl)c(Cl)c1)Nc1ccc(Cl)c(Cl)c1 (tested in a mixture with another compound)
[17]
  T/C: 97 % of control
[18]
  T/C: 88 % of control
[19]
  T/C: 94 % of control

## COc1ccc(-n2nc3c(ccc4ccccc43)c2NC2CCCCC2)cc1
[9]
  T/C: 104 % of control
[10]
  T/C: 98 % of control
[11]
  T/C: 102 % of control

## CC1CC(=O)NN1 (stereo not drawn)
[20]
  T/C: 100 % of control
[21]
  T/C: 101 % of control
[22]
  T/C: 107 % of control

## Nc1nc(N)c2cc(CNc3ccc(C(=O)NC(CC(=O)O)CC(=O)O)cc3)ccc2n1
[19]
  T/C: 203 % of control
[1]
  T/C: 226 % of control
dose: 100.0 mg/kg/injection, schedule: Q01DX009 (ip), vehicle: saline sonified
  T/C: 168 % of control
[5]
  T/C: 99 % of control
dose: 100.0 mg/kg/injection, schedule: Q04DX003 (ip), vehicle: saline sonified
  T/C: 181 % of control
dose: 200.0 mg/kg/injection, schedule: Q01DX009 (ip), vehicle: saline sonified
  T/C: 204 % of control
[7]
  T/C: 87 % of control
dose: 200.0 mg/kg/injection, schedule: Q04DX003 (ip), vehicle: saline sonified
  T/C: 150 % of control
dose: 400.0 mg/kg/injection, schedule: Q01DX009 (ip), vehicle: saline sonified
  T/C: 159 % of control
dose: 400.0 mg/kg/injection, schedule: Q04DX003 (ip), vehicle: saline sonified
  T/C: 113 % of control

## COC1=CC(=O)C([C@@H]2COc3cc(O)ccc3C2)=CC1=O
dose: 3.75 mg/kg/injection, schedule: Q01DX009 (ip), vehicle: Klucel (hydroxypropylcellulose) (HPC)
  T/C: 95 % of control
dose: 7.5 mg/kg/injection, schedule: Q01DX009 (ip), vehicle: Klucel (hydroxypropylcellulose) (HPC)
  T/C: 99 % of control
dose: 15.0 mg/kg/injection, schedule: Q01DX009 (ip), vehicle: Klucel (hydroxypropylcellulose) (HPC)
  T/C: 95 % of control
dose: 30.0 mg/kg/injection, schedule: Q01DX009 (ip), vehicle: Klucel (hydroxypropylcellulose) (HPC)
  T/C: 98 % of control

## CCOC(=O)/C=C1/Nc2ccc(Cl)cc2NC1=O (tested in a mixture with another compound)
dose: 50.0 mg/kg/injection, schedule: Q01DX009 (ip), vehicle: distilled water + Tween-80 + alcohol
  T/C: 96 % of control
dose: 100.0 mg/kg/injection, schedule: Q01DX009 (ip), vehicle: distilled water + Tween-80 + alcohol
  T/C: 88 % of control
dose: 200.0 mg/kg/injection, schedule: Q01DX009 (ip), vehicle: distilled water + Tween-80 + alcohol
  T/C: 88 % of control

## CN(CN(C)N=Nc1ccc(Cl)cc1)CN(C)N=Nc1ccc(Cl)cc1
[20]
  T/C: 104 % of control
[21]
  T/C: 110 % of control
[22]
  T/C: 110 % of control

## C=Cc1cc[n+](CC(=O)c2ccc(-c3ccccc3)cc2)cc1
dose: 12.5 mg/kg/injection, schedule: Q01DX009 (ip), vehicle: Klucel (hydroxypropylcellulose) (HPC)
  T/C: 103 % of control
dose: 25.0 mg/kg/injection, schedule: Q01DX009 (ip), vehicle: Klucel (hydroxypropylcellulose) (HPC)
  T/C: 90 % of control
dose: 50.0 mg/kg/injection, schedule: Q01DX009 (ip), vehicle: Klucel (hydroxypropylcellulose) (HPC)
  T/C: 92 % of control

## CC(=O)N1CCN(c2ccc(OCC3COC(Cn4ccnc4)(c4ccc(Cl)cc4Cl)O3)cc2)CC1 (stereo not drawn)
[3]
  T/C: 88 % of control
[5]
  T/C: 87 % of control

## O=C1c2ccccc2C(=O)c2sccc21
dose: 1.56 mg/kg/injection, schedule: Q01DX009 (ip), vehicle: saline with Tween-80
  T/C: 98 % of control
[17]
  T/C: 105 % of control
[18]
  T/C: 103 % of control
[19]
  T/C: 99 % of control
[1]
  T/C: 97 % of control
[5]
  T/C: 88 % of control

## O=[N+]([O-])c1cccn2nnnc12
dose: 3.12 mg/kg/injection, schedule: Q01DX009 (ip), vehicle: saline with Tween-80
  T/C: 102 % of control
[18]
  T/C: 87 % of control
[19]
  T/C: 93 % of control
[1]
  T/C: 95 % of control
[3]
  T/C: 117 % of control and 96 % of control
[5]
  T/C: 119 % of control

## CC12CCC3C(CCC4CC(OC(=O)Cc5ccc(N(CCCl)CCCl)cc5)CCC43C)C1CCC(=O)N2 (stereo not drawn)
dose: 0.75 mg/kg/injection, schedule: Q01DX009 (ip), vehicle: saline with Tween-80
  T/C: 112 % of control and 117 % of control
dose: 1.5 mg/kg/injection, schedule: Q01DX009 (ip), vehicle: saline with Tween-80
  T/C: 111 % of control and 124 % of control
dose: 6.0 mg/kg/injection, schedule: Q01DX009 (ip), vehicle: saline with Tween-80
  T/C: 169 % of control and 184 % of control
dose: 12.0 mg/kg/injection, schedule: Q01DX009 (ip), vehicle: saline with Tween-80
  T/C: 220 % of control and 237 % of control
dose: 24.0 mg/kg/injection, schedule: Q01DX009 (ip), vehicle: saline with Tween-80
  T/C: 104 % of control and 121 % of control

## CCCCc1c2cnccc2c(CCCC)c2c1[nH]c1ccccc12
dose: 25.0 mg/kg/injection, schedule: Q04DX002 (ip), vehicle: saline with Tween-80
  T/C: 105 % of control
dose: 50.0 mg/kg/injection, schedule: Q04DX002 (ip), vehicle: saline with Tween-80
  T/C: 100 % of control
dose: 100.0 mg/kg/injection, schedule: Q04DX002 (ip), vehicle: saline with Tween-80
  T/C: 96 % of control
dose: 200.0 mg/kg/injection, schedule: Q04DX002 (ip), vehicle: saline with Tween-80
  T/C: 91 % of control

## O=[N+]([O-])c1cccc2c[n+](Cc3ccc(Br)cc3)ccc12
dose: 6.25 mg/kg/injection, schedule: Q01DX009 (ip), vehicle: saline
  T/C: 107 % of control
dose: 12.5 mg/kg/injection, schedule: Q01DX009 (ip), vehicle: saline
  T/C: 117 % of control
[2]
  T/C: 118 % of control

## O=NNc1nccnn1
dose: 3.12 mg/kg/injection, schedule: Q01DX009 (ip), vehicle: water
  T/C: 105 % of control
dose: 6.25 mg/kg/injection, schedule: Q01DX009 (ip), vehicle: water
  T/C: 107 % of control
[12]
  T/C: 105 % of control
[13]
  T/C: 108 % of control and 111 % of control
[14]
  T/C: 114 % of control and 118 % of control
dose: 100.0 mg/kg/injection, schedule: Q01DX009 (ip), vehicle: water
  T/C: 120 % of control
dose: 200.0 mg/kg/injection, schedule: Q01DX009 (ip), vehicle: water
  T/C: 119 % of control
